Values of other authors in PMC7395068, “The evolution of strategies to minimise the risk of human drug-induced liver injury (DILI) in drug discovery and development” (Archives of Toxicology, 2020).
Where two headings read alike, the source gives them in different places.

How the values were obtained:
[1] = cited from earlier work
[2] = cited from earlier work; remark: listed apart in the source
[3] = tested on: isolated mouse liver mitochondria; details: cited from earlier work
[4] = tested on: HepG2 cells; details: cited from earlier work
[5] = tested on: human hepatocytes; details: In vitro Assay; ref Xu 2008; cited from earlier work
[6] = tested on: THLE or HepG2 cells, isolated mitochondria, BSEP; details: cited from earlier work
[7] = tested on: primary human hepatocytes, NIH3T3 fibroblasts, BSEP, CYP3A4; details: In vitro Assay; ref Schadt 2015; cited from earlier work
[8] = In vitro Assay, ref Porceddu 2012

Structure (SMILES)	In vivo DILI ([1]; ref Porceddu 2012)	DILI +VE (5-8), DILI -VE (-4) ([2]; ref Chen 2016)	DILI severity category ([2]; ref Chen 2016)	in vitro data EC2<=1x Cmax [3, 8]	in vitro data EC20<=2uM [3, 8]	other results
COc1cccc2c1C(=O)c1c(O)c3c(c(O)c1C2=O)C[C@@](O)(C(C)=O)C[C@@H]3O[C@H]1C[C@H](N)[C@H](O)[C@H](C)O1 [daunorubicin]	+VE	-VE	vNo-DILI-Concern	+VE	+VE	
CC(C)(C(=O)O)c1ccc(C(O)CCCN2CCC(C(O)(c3ccccc3)c3ccccc3)CC2)cc1 (stereo not shown) [fexofenadine]						Cluser analysis [4]: -VE
O=C(O)c1cc(-c2ccc(F)cc2F)ccc1O [diflunisal]	+VE	+VE	vMost-DILI-Concern	+VE	+VE	In vivo DILI ([1]; ref Xu 2008): +VE; Structural based (HCI) [5]: +VE
O=C(O)CCCc1ccc(N(CCCl)CCCl)cc1 [chlorambucil]	+VE	+VE	vLess-DILI-Concern	+VE	+VE	
COc1cccc(C2(O)CCCCC2CN(C)C)c1 (stereo not shown) [tramadol]	+VE	-VE	Ambiguous DILI-concern	-VE	-VE	
CC(C)(C)NC(=O)[C@@H]1C[C@@H]2CCCC[C@@H]2CN1C[C@@H](O)[C@H](Cc1ccccc1)NC(=O)[C@H](CC(N)=O)NC(=O)c1ccc2ccccc2n1 [saquinavir]	+VE	+VE	vLess-DILI-Concern	+VE	+VE	In vivo DILI ([1]; ref Schadt 2015): -VE
CC(C)c1nc(CN(C)C(=O)N[C@H](C(=O)N[C@@H](Cc2ccccc2)C[C@H](O)[C@H](Cc2ccccc2)NC(=O)OCc2cncs2)C(C)C)cs1 [ritonavir]	+VE	+VE	vMost-DILI-Concern	+VE	+VE	Partition Hybrid HRM Score ([6]; In vitro Assay, ref Aleo 2019): +VE; Ro2 Hybrid HRM Score ([6]; In vitro Assay, ref Aleo 2019): +VE; In vivo DILI ([1]; ref Aleo 2019): +VE; In vivo DILI ([1]; ref Schadt 2015): +VE
CC1=NS(=O)(=O)c2cc(Cl)ccc2N1 [diazoxide]	-VE	-VE	Ambiguous DILI-concern	+VE	-VE	
CC[C@]1(O)C[C@@H]2CN(CCc3c([nH]c4ccccc34)[C@@](C(=O)OC)(c3cc4c(cc3OC)N(C)[C@H]3[C@@](O)(C(=O)OC)[C@H](OC(C)=O)[C@]5(CC)C=CCN6CC[C@]43[C@@H]65)C2)C1 [vinblastine]				-VE		Cellular toxicity (3T3 cells) [7]: -VE; GSH adduct HML [7]: -VE; Hepatocyte cellular toxicity [7]: +VE; MitoTox 3T3 [7]: +VE; TDI CYP3A4 [7]: +VE; hBSEP inhibition [7]: +VE
C#Cc1cccc(Nc2ncnc3cc(OCCOC)c(OCCOC)cc23)c1 [erlotinib]	+VE	+VE	vMost-DILI-Concern	+VE	+VE	
Nc1ccn([C@@H]2CS[C@H](CO)O2)c(=O)n1 [lamivudine]				+VE		Partition Hybrid HRM Score [6]: -VE; DILI +VE (5-8), DILI -VE (-4) ([2]; in vivo): +VE; DILI severity category ([2]; in vivo): vLess-DILI-Concern
CNS(=O)(=O)Cc1ccc2[nH]cc(CCN(C)C)c2c1 [sumatriptan]	-VE	-VE	Ambiguous DILI-concern	-VE	-VE	In vivo DILI ([1]; ref Xu 2008): -VE; Structural based (HCI) [5]: -VE
C[C@@H]1O[C@@H](OC[C@H]2O[C@@H](Oc3c(-c4ccc(OCCO)c(OCCO)c4)oc4cc(OCCO)cc(O)c4c3=O)[C@H](O)[C@@H](O)[C@@H]2O)[C@H](O)[C@H](O)[C@H]1O [Troxerutin]	-VE			-VE	+VE	
C=CC1=C(C(=O)O)N2C(=O)[C@@H](NC(=O)/C(=N\OCC(=O)O)c3csc(N)n3)[C@H]2SC1 [cefixime]	+VE	-VE	Ambiguous DILI-concern	+VE	-VE	
[Cl][Mn][Cl] [manganese chloride]	-VE			-VE	-VE	
Cc1c(O)cccc1C(=O)N[C@@H](CSc1ccccc1)[C@H](O)CN1C[C@H]2CCCC[C@H]2C[C@H]1C(=O)NC(C)(C)C [nelfinavir]	+VE	+VE	vLess-DILI-Concern	+VE	+VE	
Clc1ccc(COC(Cn2ccnc2)c2ccc(Cl)cc2Cl)cc1 (stereo not shown) [Econazole]	+VE			+VE	+VE	
Nc1nc2ncc(CNc3ccc(C(=O)N[C@@H](CCC(=O)O)C(=O)O)cc3)nc2c(=O)[nH]1 [folic acid]				+VE		Partition Hybrid HRM Score ([6]; In vitro Assay, ref Aleo 2019): -VE; Ro2 Hybrid HRM Score ([6]; In vitro Assay, ref Aleo 2019): -VE
CC[C@H]1OC(=O)[C@H](C)[C@@H](O[C@H]2C[C@@](C)(OC)[C@@H](O)[C@H](C)O2)[C@H](C)[C@@H](O[C@@H]2O[C@H](C)C[C@H](N(C)C)[C@H]2O)[C@](C)(O)C[C@@H](C)/C(=N\OCOCCOC)[C@H](C)[C@@H](O)[C@]1(C)O [roxithromycin]	+VE			+VE	-VE	
O=c1c(-c2ccc(O)cc2)coc2cc(O)cc(O)c12 [genistein]						In vivo DILI ([1]; in vivo): -VE; in vitro data EC20<=2uM [3]: +VE
O=C(O)c1nn(Cc2ccc(Cl)cc2Cl)c2ccccc12 [Lonidamine]	+VE			+VE	+VE	
O=C(O)c1ccccc1Nc1cccc(C(F)(F)F)c1 [Flufenamic acid]	+VE			+VE	+VE	
Clc1ccccc1C(c1ccccc1)(c1ccccc1)n1ccnc1 [clotrimazole]	+VE	+VE	vLess-DILI-Concern	+VE	+VE	Partition Hybrid HRM Score ([6]; In vitro Assay, ref Aleo 2019): +VE; Ro2 Hybrid HRM Score ([6]; In vitro Assay, ref Aleo 2019): +VE; In vivo DILI ([1]; […]): -VE; In vivo DILI ([1]; ref Aleo 2019): +VE; In vivo DILI ([1]; ref Xu 2008): -VE; Structural based (HCI) [5]: -VE
CNC(=O)c1cc(Oc2ccc(NC(=O)Nc3ccc(Cl)c(C(F)(F)F)c3)cc2)ccn1 [sorafenib]	+VE	+VE	vMost-DILI-Concern	+VE	-VE	Partition Hybrid HRM Score ([6]; In vitro Assay, ref Aleo 2019): +VE; Ro2 Hybrid HRM Score ([6]; In vitro Assay, ref Aleo 2019): +VE; In vivo DILI ([1]; ref Aleo 2019): +VE
O=[As]O[As]=O (stereo not shown) [arsenic trioxide]	+VE	-VE	Ambiguous DILI-concern	-VE	+VE	
Cc1ccc(NC(=O)c2ccc(CN3CCN(C)CC3)cc2)cc1Nc1nccc(-c2cccnc2)n1 [imatinib]				+VE		In vivo DILI ([1]; in vivo): +VE; DILI +VE (5-8), DILI -VE (-4) ([2]; in vivo): +VE; DILI severity category ([2]; in vivo): vMost-DILI-Concern
COc1cc2ncnc(Nc3ccc(F)c(Cl)c3)c2cc1OCCCN1CCOCC1 [gefitinib]				+VE		Partition Hybrid HRM Score ([6]; In vitro Assay, ref Aleo 2019): +VE; Ro2 Hybrid HRM Score ([6]; In vitro Assay, ref Aleo 2019): +VE
